“Also recorded” adds a separate entry of the source.
Experiments:
[1] = system: MCF7 cells; assay: MTT cell proliferation assay in MCF7; type: cell-based, human; conditions: for cell growth (MTT) with E2: MCF7, E2 free medium with addition of 10 nmol/L E2; for cell growth (MTT): MCF7, E2 free medium with or without addition of 10 nmol/L E2 (FIG. 9B-D); for day from which significant effect on proliferation was detected / cell proliferation (MTT): MCF7, normal growth medium; for cell proliferation (MTT): 60 nmol/L
Method: (§1) MTT cell proliferation assay. MCF7 cells were transfected with let-7 mimics or negative controls (60 nmol/L) in normal growth medium for 1 day, or in medium with 2.5% charcoal-stripped FBS for 2 days to exhaust endogenous estrogen, following the protocol of siPORT NeoFX Transfection Agent (Applied Biosystems). For the experiment in normal growth medium, 10^4 cells in the volume of 100 μL were seeded in a 96-well plate for 12 hours and assay lasted for another 4 days. For experiments in E2 free medium, 1.5 10^4 cells were seeded in a 96-well plate for 12 hours and then exposed to 10 nmol/L E2, or not, for up to 4 days. For both experiments, each treatment had 12 replicates on the plate. The cells were then incubated in 0.83 mg/mL 3-[4,5-dimethylthiazol-2-yl]-2,5-diphenyltetrazolium bromide (MTT) in growth medium at 37° C. for 4 h and lysed in 100 μL of DMSO at room temperature for 15 min. The absorbance in each well was measured at 490 nm by an ELx800 Absorbance Microplate Reader (Biotek). Cell proliferation was normalized to day 0.

[2] = Real-time PCR of let-7 levels after mimic transfection (Example 2); type: cell-based, human
Method: To analyze mature let-7 miRNAs with real-time PCR, total RNA was isolated from the cell lines using mirVana miRNA isolation kit (Ambion Inc., Austin, Tex.) or from FFPE tissues using the miRNeasy FFPE Kit (Qiagen, Valencia, Calif.) following the manufacturer's instructions. We collected FFPE breast tissues from 13 benign, 16 ductal carcinomas in situ (DCIS), and 15 invasive ductal carcinomas (IDC), all of which were prepared as 50 μm thick sheets. The benign breast tissues were from surgical resections of abnormal breast lesions with non-neoplastic phenotypes such as calcification, fibrocystic changes or stromal fibrosis. cDNA was synthesized using 100 ng total RNA in a reaction volume of 15 μL and following the protocol of Taqman microRNA reverse transcription kit (Applied Biosystems, Foster City, Calif.). After 15 dilution, 9 μl, cDNA mixture was used for real-time PCR in 20 μL reaction volume, including 10 μL of TaqMan universal PCR master mix (no ampErase UNG) and 1 μL Taqman probe (Applied Biosystems, Foster City, Calif.). Real-time PCR was performed on 7900HT realtime PCR instrument (Applied Biosystems). PCR was initiated by two holds of 52° C. 2 min and 94° C. 10 min each, followed by 40 cycles of 15 s at 95° C. and 1 min at 60° C. The level of each miRNA was expressed following the 2^−ΔCt method using the small nuclear RNA RNU48 as the internal reference.
Let-7 miRNA or negative control #1 miRNA of 60 nmol/L (Ambion, Austin, Tex.) was transfected into cells with the siPORT NeoFX reagent (Ambion, Austin, Tex.) following the manufacturer's protocol.

[3] = system: ER-α negative MDA-MB-231 cell line; assay: MTT cell proliferation assay in MDA-MB-231; type: cell-based, human; conditions: MDA-MB-231, DMEM with 10% FBS
Method: FIG. 10. The effects of let-7a, let-7b, and let-7i miRNAs on cell proliferation in ER-α negative MDA-MB-231 cell line. Cancer cell proliferation was monitored by MTT assays in the same way as in MCF7 cell line except MDA-MB-231 cells were grown in DMEM with 10% FBS.
as §1

[4] = system: MCF7-Tam cells; assay: MTT cell proliferation assay with tamoxifen in MCF7-Tam; type: cell-based, human; conditions: 1 μmol/L tamoxifen
Method: MCF7-Tam cells were transfected with let-7 mimics or negative control in normal growth medium for 1 day, or in medium with 2.5% charcoal-stripped FBS for 2 days to exhaust endogenous estrogen. Ten thousand cells in the volume of 100 μL were seeded in a 96-well plate for 12 hours and assay lasted for another 4 days. For tamoxifen treatment, 1 μmol/L tamoxifen was added to each well of 96-well plate. Each treatment had 12 replicates on the plate. Medium volume was increased to 200 μL after the assay began. The cells were then incubated in 0.83 mg/mL 3-[4,5-dimethylthiazol-2-yl]-2,5-diphenyltetrazolium bromide (MTT) in growth medium at 37° C. for 4 hours and lysed in 100 μL of dimethyl sulfoxide at room temperature for 15 minutes. The absorbance in each well was measured at […] with an ELx800 Absorbance Microplate Reader (Biotek, Winooski, Vt.). Cell growth was expressed as a fraction of absorbance at day 0.

[5] = system: 3′ UTR of human ER-α gene; assay: Luciferase reporter assay, ER-α 3′ UTR let-7 binding site in pMIR-REPORT; type: cell-based; conditions: MCF7 cells; for luciferase activity, ER-α binding site in 3′UTR of luciferase: 60 nmol/L mimics, vs negative control miRNA; for luciferase activity, mutated ER-α binding sequence: mutated sequence in 3′UTR of luciferase
Source text: Luciferase assay. A fragment of the 3′ UTR of human ER-α gene, which contains the putative let-7 target sites, was synthesized (IDT technology). With attached SpeI and HindIII restriction sites, the fragments are 48 by long. The sense strand was 5′-[…] (SEQ ID NO:39) while the antisense strand was 5′-[…] (SEQ ID NO:40). The cloning and transfection followed previous protocol (Hu et al., 2009, J Immunol 183:1617-24). Sixty nanomolar let-7 mimics, anti-let-7 inhibitors, pre-miR negative control #1 (AM17110, Ambion), or anti-miR negative control #1 (AM17010, Ambion) were transfected together with a 0.25 μg luciferase construct and a 0.25 μg β-galactosidase plasmid, which were used as a normalization reference. After 24 hour post-transfection, the luciferase activity was measured in a Veritas Microplate Luminometer (Turner Biosystems). Every treatment had 3 replicates. The luciferase activity was expressed as a fraction of negative control.

[6] = MCF7-Tam, 6 days after transfection, vs negative control
[7] = MCF7-Tam, two days after transfection
[8] = MDA-MB-231, after 2 days, vs negative control cells
[9] = E2 free medium (2.5% charcoal-stripped FBS)
[10] = complete (normal growth) medium with 10% FBS

Substance | cell growth (MTT) with E2 [1] | cell growth (MTT) [1] | day from which significant effect on proliferation was detected [1] | cell proliferation (MTT) [1] | increase of let-7 level after mimic transfection [2, 6] | increase of let-7 level after mimic transfection [2, 7] | increase of let-7 level after mimic transfection [2, 8] | cell growth (MTT) [3] | tamoxifen sensitivity / cell growth (MTT) with tamoxifen [4, 9] | tamoxifen sensitivity / cell growth (MTT) with tamoxifen [4, 10] | luciferase activity, ER-α binding site in 3′UTR of luciferase [5] | luciferase activity, mutated ER-α binding sequence [5]
let-7b: let-7b miRNA (mimic), 3′-UUGGUGUGUUGGAUGAUGGAGU-5′ (SEQ ID NO:8) (chemistry not given here; listed 3' to 5') | consistent inhibition | strongly inhibited | 2 days | significantly inhibited cell proliferation | 100 fold | ~600 fold | ~400 fold | None of three miRNAs significantly inhibited cell growth | grew significantly slower; also recorded: significantly enhanced tamoxifen sensitivity | does not affect tamoxifen sensitivity | decreased the luciferase activity; also recorded: significantly inhibited the luciferase activity | abrogated the effects; also recorded: did not show inhibition
let-7i: let-7i miRNA (mimic), 3′-UUGUCGUGUUUGAUGAUGGAGU-5′ (SEQ ID NO:14) (chemistry not given here; listed 3' to 5') | consistent inhibition | strongly inhibited | 3 days | significantly inhibited cell proliferation | 100 fold | ~300 fold | ~200 fold | None of three miRNAs significantly inhibited cell growth | grew significantly slower; also recorded: significantly enhanced tamoxifen sensitivity | does not affect tamoxifen sensitivity | decreased the luciferase activity; also recorded: significantly inhibited the luciferase activity | abrogated the effects; also recorded: did not show inhibition

Reference: patent publication US8841269B2, “Polynucleotides for use in treating and diagnosing cancers” (Creighton University, priority 2010, dated 2014)
